Assay results: patent EP0745595A1, “3-(3-Aryloxyphenyl)-1-(substituted methyl)-s-triazine-2,4,6-oxo or thiotrione herbicidal agents” (American Cyanamid Company, priority 1995, dated 1996)

What was measured:
Assay type in all cases: in vivo
[1] = system: ABUTILON THEOPHRASTI, MEDIC.; assay: Postemergence herbicidal evaluation, ABUTH (Velvetleaf); details: rated four to five weeks after treatment, averaged
Procedure: (§1) In the tests, seedling plants are grown in jiffy flats for about two weeks. The test compounds are dispersed in 50/50 acetone/water mixtures containing 0.5% TWEEN®20, a polyoxyethylene sorbitan monolaurate surfactant of Atlas Chemical Industries, […] to the plants through a spray nozzle operating at 40 psi for a predetermined time. After spraying, the plants are placed on greenhouse benches and are cared for in the usual manner, commensurate with conventional greenhouse practices. From four to five weeks after treatment, the seedling plants are examined and rated according to the rating system set forth below. Where more than one test is involved for a given compound, the data are averaged.
(§2) Plant species employed in these evaluations are reported by header abbreviation, common name and scientific name.
(§3) Results of herbicide evaluation are expressed on a rating scale (0-9). The scale is based upon a visual observation of plant stand, vigor, malformation, size, chlorosis and overall plant appearance as compared with a control.

CASSIA OBTUSIFOLIA, L. = assay: Postemergence herbicidal evaluation, CASOB (Sicklepod); details: rated four to five weeks after treatment, averaged
Procedure: (§4) In the tests, seedling plants are grown in jiffy flats for about two weeks. The test compounds are dispersed in 50/50 acetone/water mixtures containing 0.5% TWEEN®20, a polyoxyethylene sorbitan monolaurate surfactant of Atlas Chemical Industries, in sufficient quantities to provide the equivalent of about 0.125 kg to 0.500 kg per hectare of active compound when applied to the plants through a spray nozzle operating at 40 psi for a predetermined time. After spraying, the plants are placed on greenhouse benches and are cared for in the usual manner, commensurate with conventional greenhouse practices. From four to five weeks after treatment, the seedling plants are examined and rated according to the rating system set forth below. Where more than one test is involved for a given compound, the data are averaged.
as §2, §3

CHENOPODIUM ALBUM, L. = assay: Postemergence herbicidal evaluation, CHEAL (Lambsquarters, Common); details: rated four to five weeks after treatment, averaged
Procedure: as §1, §2, §3

IPOMOEA SPP. = assay: Postemergence herbicidal evaluation, IPOSS (Morningglory spp.); details: rated four to five weeks after treatment, averaged
Procedure: as §1, §2, §3

GALIUM APARINE = assay: Postemergence herbicidal evaluation, GALAP (Galium); details: rated four to five weeks after treatment, averaged
Procedure: as §4, §2, §3

[2] = system: ECHINOCHLOA ORYZOIDES (ARD.)FRITSCH; assay: Preemergence weed control under flooded paddy conditions, ECHORC (Watergrass (Calif.)); details: preemergence, 3-4 weeks after treatment
Procedure: as §3
(§5) Preemergence herbicidal activity under flooded paddy conditions is determined as follows: plant seeds or propagating organs are planted in the top 0.5 cm of silt loam soil in 32 oz. plastic containers with a diameter of 10.5 cm and no drainage holes. Water is added to these containers and maintained at 1.5 to 3 cm above the soil surface for the duration of the experiment. […] The treated containers are placed on greenhouse benches and cared for according to normal greenhouse procedures.- Three to four weeks after treatment the test is terminated and each container is examined and herbicidal effect rated according to the rating system provided in Example 40. The compounds evaluated are reported by compound number given in Example 40.
(§6) Plant species employed in this example are reported by header abbreviation, common name and scientific name.

[…], PRESL. = Preemergence weed control under flooded paddy conditions, MOOVA (Monochoria); details: preemergence, 3-4 weeks after treatment
Procedure: as §3
Preemergence herbicidal activity under flooded paddy conditions is determined as follows: plant seeds or propagating organs are planted in the top 0.5 cm of silt loam soil in 32 oz. plastic containers with a diameter of 10.5 cm and no drainage holes. Water is added to these containers and maintained at 1.5 to 3 cm above the soil surface for the duration of the experiment. The test compounds are applied as aqueous/acetone mixtures 50/50 v/v pipetted directly into the flood water to give the equivalent of about 0.5, 0.25, 0.125 and 0.063 kg/ha of active ingredient. The treated containers are placed on greenhouse benches and cared for according to normal greenhouse procedures.- Three to four weeks after treatment the test is terminated and each container is examined and herbicidal effect rated according to the rating system provided in Example 40. The compounds evaluated are reported by compound number given in Example 40.
as §6

[3] = system: ORYZA SATIVA, L. TEBONNET; assay: Rice tolerance to post-transplant applications under flooded paddy conditions, ORYSAT (Rice, Tebonnet); details: post-transplant rice, 3-4 weeks after treatment
Procedure: as §3
The tolerance of transplanted rice to post-transplanted herbicide applications is determined as follows: two ten-day-old rice seedlings (CV. Tebonnet) are transplanted into a silt loam soil in 32 oz. plastic containers with a diameter of 10.5 cm and no drainage holes. After transplanting the containers are flooded and the water level is maintained at 1.5 to 3 cm above the soil surface. […] The treated containers are placed on greenhouse benches, watered such that the water level is maintained as stated above, and cared for according to normal greenhouse procedures. Three to four weeks after treatment the test is terminated and each container is examined and herbicidal effect rated according to the rating system provided in Example 40. The compounds evaluated are reported by compound number given in Example 40.
as §6

[4] = system: CYPERUS SEROTINUS, ROTTB.; assay: Preemergence weed control under flooded paddy conditions, CYPSE (Flatsedge); details: preemergence, 3-4 weeks after treatment
Procedure: as §3, §5, §6

SAGITTARIA PYGMAEA, L. = assay: Preemergence weed control under flooded paddy conditions, SAGPY (Arrowhead (Pygmaea)); details: preemergence, 3-4 weeks after treatment
Procedure: as §3, §5, §6

Row | SMILES | ABUTH, herbicide rating (0-9) ([1]; Rate 0.125 kg/ha) | ABUTH, herbicide rating (0-9) ([1]; Rate 0.250 kg/ha) | ABUTH, herbicide rating (0-9) ([1]; Rate 0.500 kg/ha) | CASOB, herbicide rating (0-9) (CASSIA OBTUSIFOLIA, L.; Rate 0.125 kg/ha) | CASOB, herbicide rating (0-9) (CASSIA OBTUSIFOLIA, L.; Rate 0.250 kg/ha) | CASOB, herbicide rating (0-9) (CASSIA OBTUSIFOLIA, L.; Rate 0.500 kg/ha) | GALAP, herbicide rating (0-9) (GALIUM APARINE; Rate 0.125 kg/ha) | GALAP, herbicide rating (0-9) (GALIUM APARINE; Rate 0.250 kg/ha) | GALAP, herbicide rating (0-9) (GALIUM APARINE; Rate 0.500 kg/ha) | Herbicidal effect rating, MOOVA ([…], PRESL.; 0.063 kg/ha) | Herbicidal effect rating, MOOVA ([…], PRESL.; 0.125 kg/ha) | Herbicidal effect rating, MOOVA ([…], PRESL.; 0.250 kg/ha) | Herbicidal effect rating, MOOVA ([…], PRESL.; 0.500 kg/ha) | Herbicidal effect rating, ORYSAT ([3]; 0.063 kg/ha) | Herbicidal effect rating, ORYSAT ([3]; 0.125 kg/ha) | Herbicidal effect rating, ORYSAT ([3]; 0.250 kg/ha) | Herbicidal effect rating, ORYSAT ([3]; 0.500 kg/ha) | also measured
1 | COC(=O)Cn1c(=O)n(C)c(=O)n(-c2cc(Oc3ccc(Cl)cc3Cl)ccc2[N+](=O)[O-])c1=O [Compound 18, Methyl 3-[5-(2,4-dichlorophenoxy)-2-nitrophenyl]tetrahydro-5-methyl-2,4,6-trioxo-s-trizine-1(2H)-acetate] | 9.0 | 9.0 | 9.0 | 9.0 | 9.0 | 9.0 | 9.0 | 9.0 | 9.0 | 9.0 | 9.0 | 9.0 | 9.0 | 2.0 | 3.0 | 3.0 | 4.0 | CHEAL, herbicide rating (0-9) (CHENOPODIUM ALBUM, L.; Rate 0.125 kg/ha): 9.0; CHEAL, herbicide rating (0-9) (CHENOPODIUM ALBUM, L.; Rate 0.250 kg/ha): 9.0; CHEAL, herbicide rating (0-9) (CHENOPODIUM ALBUM, L.; Rate 0.500 kg/ha): 9.0; IPOSS, herbicide rating (0-9) (IPOMOEA SPP.; Rate 0.125 kg/ha): 9.0; IPOSS, herbicide rating (0-9) (IPOMOEA SPP.; Rate 0.250 kg/ha): 9.0; IPOSS, herbicide rating (0-9) (IPOMOEA SPP.; Rate 0.500 kg/ha): 9.0; Herbicidal effect rating, ECHORC ([2]; 0.063 kg/ha): 9.0; Herbicidal effect rating, ECHORC ([2]; 0.125 kg/ha): 9.0; Herbicidal effect rating, ECHORC ([2]; 0.250 kg/ha): 9.0; Herbicidal effect rating, ECHORC ([2]; 0.500 kg/ha): 9.0
2 | COC(=O)Cn1c(=O)n(CC(=O)OC)c(=O)n(-c2cc(Oc3ccc(Cl)cc3Cl)ccc2[N+](=O)[O-])c1=O [Compound 19, Dimethyl 5-[5-(2,4-dichlorophenoxy)-2-nitro-phenyl]dihydro-2,4,6-trioxo-s-trizine-1,3-(2H,4H)-diacetate] | 9.0 | 9.0 | 9.0 | 9.0 | 9.0 | 9.0 | 9.0 | 9.0 | 9.0 | 9.0 | 9.0 | 9.0 | 9.0 | 1.0 | 1.0 | 1.0 | 1.0 | Herbicidal effect rating, CYPSE ([4]; 0.063 kg/ha): 0.0; Herbicidal effect rating, CYPSE ([4]; 0.125 kg/ha): 0.0; Herbicidal effect rating, CYPSE ([4]; 0.250 kg/ha): 0.0; Herbicidal effect rating, CYPSE ([4]; 0.500 kg/ha): 0.0; Herbicidal effect rating, SAGPY (SAGITTARIA PYGMAEA, L.; 0.063 kg/ha): 0.0; Herbicidal effect rating, SAGPY (SAGITTARIA PYGMAEA, L.; 0.125 kg/ha): 0.0; Herbicidal effect rating, SAGPY (SAGITTARIA PYGMAEA, L.; 0.250 kg/ha): 0.0; Herbicidal effect rating, SAGPY (SAGITTARIA PYGMAEA, L.; 0.500 kg/ha): 0.0
